B1: bactericidal/permeability increasing polypeptide (protein, UniProt P17213 32-487, looked up)
Bactericidal …: VNPGVVVRISQKGLDYASQQGTAALQKELKRIKIPDYSDSFKIKHLGKGHYSFYSMDIREFQLPSSQISMVPNVGLKFSISNANIKISGKWKAQKRFLKMSGNFDLSIEGMSISADLKLGSNPTSGKPTITCSSCSSHINSVHVHISKSKVGWLIQLFHKKIESALRNKMNSQVCEKVTNSVSSELQPYFQTLPVMTKIDSVAGINYGLVAPPATTAETLDVQMKGEFYSENHHNPPPFAPPVMEFPAAHDRMVYLGLSDYFFNTAGLVYQEAGVLKMTLRDDMIPKESKFRLTTKFFGTFLPEVAKKFPNMKIQIHVSASTPPHLSVQPTGLTFYPAVDVQAFAVLPNSSLASLFLIGMHTTGSMEVSAESNRLVGELKLDRLLLELKHSNIGPFPVELLQDIMNYIVPILVLPRVNEKLQKGFPLPTPARVQLYNVVLQPHQNFLLFGADVVYK
notes: purified in three column-chromatography steps

Experiments:
P. aeruginosa = test: Bactericidal activity assay; assay type: cell-based, Pseudomonas aeruginosa type 1; conditions: for Bactericidal Activity, % killing: 1.2 × 10^−7 M Peptide, 5 × 105 P. aeruginosa; for Bactericidal Activity, % killing at the effective dose: at the Ed for the same peptide; for Bactericidal Activity, Ed, Effective M dose: dose at which the % in brackets was found
Excerpt: Bacteria: P. aeruginosa type 1 is a clinical isolate maintained in the laboratory. The isolate remains a smooth strain and was serotyped by the scheme of Homma. The Pseudomonas strain was maintained by monthly transfer on blood agar plates.
The peptides can be assayed for bactericidal activity against a variety of organisms such as Pseudomonas aeruginosa type 1, P. cepacia ATCC 25608, E. coli B, and Staphylococcus aureus 502A by standard methods.
Pseudomonas aeruginosa type 1 is a clinical isolate. The isolate remains a smooth strain and was serotyped by the scheme of Homma (Jpn. J. Exp. Med. 46:329, 1976). A rough strain, E. coli B and S. aureus 502A were obtained from Paul Quie, University of Minnesota (Minneapolis, Minn.). The characteristics of the S. aureus strain have been described by Shinefield et al. (Amer. J. Dis. Chil. 105:646, 1963). Pseudomonas cepacia ATCC 25608 can be purchased from the ATCC. S. aureus and E. coli were maintained on nutrient agar plates and the Pseudomonas strains were maintained on blood agar plates.
Pyrogen-free solutions were used throughout the assay and all methods that follow. Log phase bacteria were prepared from a culture in brain heart infusion broth (Hovde et al. Infect. Immun. 54:142–148, 1986) and bacteria were washed and resuspended in saline with adjustment to an optical density at 650 nm to provide a yield of about 3×10^8 CFU/ml. Bacteria were diluted 1:10 in 0.08M citrate phosphate buffer, pH 5.6 or pH 7.0, for use in the assay. S. aureus rapidly lost viability in the pH 5.6 buffer and was studied only at pH 7.0. Bactericidal activity was determined by dose response over peptide concentrations ranging from about […] to about 4.1×10^−9M. Bactericidal activity was determined by dose response, preferably determining LD50 by linear regression.

[1] = system: endotoxin from E. coli 055:B5; test: Limulus amoebocyte lysate assay (E-TOXATE), endotoxin neutralization; assay type: biochemical; conditions: for Endotoxin Neutralization, % neutralization: 5.0 × 10^−6 M Peptide; for Endotoxin Neutralization, % neutralization / Endotoxin Neutralizing Activity, % neutralization: 0.02 U (0.2 pg) endotoxin from E. coli 055:B5; for Endotoxin Neutralizing Activity, % neutralization: 5.0 × 10^−5 M peptide
Protocol: The peptides were tested for their ability to neutralize endotoxin. Quantitative endotoxin activities for these peptides were measured by Limulus amoebocyte lysate assay.
Limulus amoebocyte lysate assay: The ability of synthetic peptides to neutralize endotoxin was detected with the E-TOXATE kit manufactured by Sigma Chemicals (St. Louis, Mo.). […] Peptide or B/PI was incubated with LPS at room temperature for 5 min in 100 ul of a 1:2 dilution of pyrogen-free saline (pH 6.4). The reaction was started by addition of 100 ul of amoebocyte lysate and the final volume was 200 ul. Assuming a 10,000 molecular weight for LPS, the approximate molar ration of B/PI:LPS at neutralization was 3000 to 1.
The peptides were tested according to the method provided above. […] BG38L was used as a positive control in these experiments.

[2] = Table 4, dose at which the % in brackets was found

Row | Molecule | Bactericidal Activity, % killing (P. aeruginosa) | Bactericidal Activity, % killing at the effective dose (P. aeruginosa) | Bactericidal Activity, Ed, Effective M dose (P. aeruginosa) [nM] | Endotoxin Neutralization, % neutralization ([1]; Table 4) | Endotoxin Neutralization, % at the effective dose ([1]; Table 4, at the Ed) [%] | Endotoxin Neutralization, Ed, Effective M dose [1, 2] [µM] | Endotoxin Neutralizing Activity, % neutralization ([1]; Table 3) | Endotoxin Neutralization, % at the effective dose ([1]; Table 3, at the ED printed in the same cell) [%] | Endotoxin neutralization, ED, Effective M dose ([1]; Table 3, dose at which the % in brackets was found) [µM] | bactericidal activity (in words) (P. aeruginosa) | approximate molar ratio B/PI:LPS at neutralization ([1]; assuming a 10,000 molecular weight for LPS)
1 | ANIKLSVEFKLFKRHLKWKIIFKLNDGREFSLD [βpep-13] | 0% | (19.8), n = 3% | 960 | 100% | 22.5 | 1.2 | – | – | – | – | –
2 | ANIKLSVEMKFFKRHLKWKIIVKLNDGRELSLD [βpep-12] | 0% | (49.1), n = 5% | 960 | 100% | 29.5 | 1.2 | – | – | – | – | –
3 | ANIKLSVEMKLFCRHLKCKIIVKLNDGRELSLD [βpep-10] | 0% | (20.9), n = 7% | 960 | 100% | 25.2 | 1.2 | – | – | – | – | –
4 | ANIKLSVEMKLFCY^DWKVCKHVKLNDGRELSLD [βpep-11] | 0% | (48.0), n = 4% | 960 | 100% | 29.5 | 1.2 | 100% | 29.5 | 1.2 | – | –
5 | ANIKLSVKWKAQKRFLKMSIIVKLNDGRELSLD [βpep-9] | 0% | (47.4), n = 11% | 960 | 100% | 32.3 | 1.2 | – | – | – | – | –
6 | ANIKLSVKWKAQKRFLKMSINVDLSDGRELSLD [βpep-2] | 18.8, n = 6% | – | – | 55.3, n = 5% | – | – | – | – | – | – | –
7 | BG38: BG38L corresponds to amino acids 86–108 of B/PI; positive control (KISGKWKAQKRFLKMSGNFDLSI; UniProt P17213 117-139, looked up, fragment) [reference compound] | – | – | – | – | – | – | 34.4, n = 5% | – | – | – | –
8 | HIKELQVKMKAQKRFLKWSIIVKLNDGRELSLD [βpep-7] | 39.1, n = 2% | – | – | 77.7, n = 2% | – | – | – | – | – | greatest bactericidal activity | –
9 | HIKELQVRWRAQKRFLRMSIIVKLNDGRELSLD [βpep-6] | 8.2, n = 2% | – | – | 79.3, n = 3% | – | – | – | – | – | – | –
10 | KFIVTLRVIKAGPHSPTAQIIVELKNGRKLSLD [βpep-5] | 7.4, n = 7% | – | – | 70.3, n = 3% | – | – | 70.3, n = 3% | – | – | – | –
11 | SIQDLKVSMKLFRKQAKWKIIVKLNDGRELSLD [βpep-18] | 18.8, n = 1% | – | – | 100% | 30.2 | 1.2 | – | – | – | – | –
12 | SIQDLNLSMKLFRKQAKWKIIVKLNDGRELSLD [βpep-22] | 35.5, n = 3% | – | – | 100% | 21.3 | 1.2 | – | – | – | greatest bactericidal activity | –
13 | SIQDLNVSLKLFRKQAKWKIIVKLNDGRELSLD [βpep-21] | 13.0, n = 1% | – | – | 100% | 40.3 | 1.2 | – | – | – | – | –
14 | SIQDLNVSMKLFRKQAKWKIILKLNDGRELSLD [βpep-15] | 0% | 23.9% | 960 | 48.1 n = 1% | – | – | – | – | – | – | –
15 | SIQDLNVSMKLFRKQAKWKIIVKLNDGRELSLD [βpep-1] | 32.0, n = 3% | – | – | 42.8, n = 3% | – | – | 42.8, n = 3% | – | – | greatest bactericidal activity | –
16 | SIQDLNVSMKLFRKQAKWKILVKLNDGRELSLD [βpep-17] | 0% | 40.1% | 960 | 100% | 28.9 | 1.2 | – | – | – | – | –
17 | SIQDLNVSMKLFRKQAKWKINVKLNDGRELSLD [βpep-4] | 37.6, n = 3% | – | – | 14.7, n = 3% | – | – | – | – | – | greatest bactericidal activity | –
18 | SIQDLNVSMXLFRKQAKWKIIVKLNDGRELSLD [βpep-20] | 0% | 0.0% | 480 | 100% | 17.1 | 1.2 | – | – | – | – | –
19 | SIQKLNVSMKLFRKQAKWKIIVKLNDGRELSLD [βpep-19] | 62.5, n = 2% | – | – | 0% | 12.4 | 16 | – | – | – | greatest bactericidal activity | –
20 | B1 | – | – | – | – | – | – | – | – | – | – | 3000 to 1

— US7030087B2, “Synthetic approach to designed chemical structures” (priority 1996, dated 2006)
